Test results reported in patent US10588317B2, “Isoxazoline-substituted benzamides and analogues as insecticides” (priority 2015, dated 2020).

Legend:
Type in all cases: in vivo
Spodoptera littoralis [1] = assay: Spodoptera littoralis (Egyptian cotton leaf worm), uptake by lettuce roots from agar; settings: 144 h, read-out: effect in at least one of the three categories (mortality, anti-feeding, or growth inhibition);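 also: 12.5 ppm test rate in agar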
How it was run: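 Systemic test: Spodoptera eggs placed on lettuce leaves from seedlings raised 7 days on agar containing the compound (diluted from 10'000 ppm DMSO stock). Six days after infestation, larvae scored against untreated controls for mortality, feeding deterrence and growth inhibition.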

Myzus persicae = Myzus persicae (green peach aphid): feeding/contact activity; settings: 144 h, application rate 200 ppm, aphid population of mixed ages, 6 days after infestation, read-out: mortality
Protocol: (§1) Sunflower leaf discs were placed onto agar in a 24-well microtiter plate and sprayed with aqueous test solutions prepared from 10'000 ppm DMSO stock solutions. After drying, the leaf discs were infested with an aphid population of mixed ages. The samples were assessed for mortality 6 days after infestation.

Euschistus heros = Euschistus heros (neotropical brown stink bug), sprayed soybean leaves; settings: 120 h, application rate 200 ppm, N2 nymphs, 5 days after infestation, read-out: effect in at least one of the two categories (mortality or growth inhibition)
How it was run: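 Scored 5 days post-infestation versus untreated controls, for both mortality and growth inhibition: N2 nymphs placed on agar-mounted soybean leaves previously sprayed at 200 ppm with aqueous test solutions from DMSO stocks and left to dry.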

Diabrotica balteata = Diabrotica balteata (corn root worm), sprayed maize sprouts; settings: 96 h, application rate 200 ppm, L2 larvae, 4 days after infestation, read-out: effect in at least one of the two categories (mortality or growth inhibition)
How it was run: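 Read-out at 4 days post-infestation: mortality and growth inhibition relative to untreated samples. Test solutions (200 ppm, from DMSO stocks) were sprayed onto agar-held maize sprouts, which after drying received 6–10 L2 larvae per well.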

Tetranychus urticae = Tetranychus urticae (two-spotted spider mite): feeding/contact activity; settings: 192 h, application rate 200 ppm, mixed population (mobile stages), 8 days after infestation, read-out: mortality
Protocol: Bean leaf discs on agar in 24-well microtiter plates were sprayed with aqueous test solutions prepared from 10'000 ppm DMSO stock solutions. After drying the leaf discs were infested with a mite population of mixed ages. The samples were assessed for mortality on mixed population (mobile stages) 8 days after infestation.

Thrips tabaci = Thrips tabaci (onion thrips): feeding/contact activity; settings: 144 h, application rate 200 ppm, Thrips population of mixed ages, 6 days after infestation, read-out: mortality
Protocol: as §1, with “on” for “onto”, “in” for “in a”, “plates” for “plate”, “drying” for “drying,”, “a Thrips” for “an aphid”

Plutella xylostella = Plutella xylostella (diamond back moth), artificial diet; settings: 120 h, application rate 200 ppm, L2 larvae, 5 days after infestation, read-out: effect in at least one of the two categories (mortality or growth inhibition)
How it was run: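 L2 larvae (10-15 per well) fed on compound-treated, dried artificial diet; test solutions diluted in water from 10'000 ppm DMSO stocks. Readout 5 days post-infestation as mortality or growth inhibition versus untreated diet, with at least 80% effect at 200 ppm as threshold.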

Spodoptera littoralis [2] = assay: Spodoptera littoralis (Egyptian cotton leaf worm), sprayed cotton leaf discs; settings: foliar, 72 h, application rate 200 ppm, L1 larvae, 3 days after infestation, read-out: control (mortality, anti-feeding effect, growth inhibition)
How it was run: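 Five first-instar larvae placed on dried cotton leaf discs (on agar) previously sprayed with aqueous dilutions of 10'000 ppm DMSO stocks. Scored at 3 days against untreated discs for mortality, feeding inhibition and growth inhibition; any category above untreated counts as control.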

CCNS(=O)(=O)N1C[C@@H](NC(=O)c2ccc(C3=NO[C@@](c4cc(Cl)c(Cl)c(Cl)c4)(C(F)(F)F)C3)cc2Cl)CO1 [Compound A125, 2-chloro-N-[(4R)-2-(ethylsulfamoyl)isoxazolidin-4-yl]-4-[(5S)-5-(3,4,5-trichlorophenyl)-5-(trifluoromethyl)-4H-isoxazol-3-yl]benzamide]
≥ 80%: percent control (mortality, anti-feedant effect or growth inhibition) at 12.5 ppm (Spodoptera littoralis [1]) | mortality at 200 ppm (Myzus persicae) | percent effect (mortality or growth inhibition) at 200 ppm (Euschistus heros) | percent effect (mortality or growth inhibition) at 200 ppm (Diabrotica balteata) | mortality at 200 ppm (Tetranychus urticae) | mortality at 200 ppm (Thrips tabaci) | percent effect (mortality or growth inhibition) at 200 ppm (Plutella xylostella) | mortality at 200 ppm (Spodoptera littoralis [2])

CNS(=O)(=O)N1CC(NC(=O)c2ccc(C3=NO[C@@](c4cc(Cl)c(Cl)c(Cl)c4)(C(F)(F)F)C3)cc2C)CO1 (stereo partly drawn) [Compound A69, 2-methyl-N-[2-(methylsulfamoyl)isoxazolidin-4-yl]-4-[(5S)-5-(3,4,5-trichlorophenyl)-5-(trifluoromethyl)-4H-isoxazol-3-yl]benzamide]
≥ 80%: percent control (mortality, anti-feedant effect or growth inhibition) at 12.5 ppm (Spodoptera littoralis [1]) | mortality at 200 ppm (Myzus persicae) | percent effect (mortality or growth inhibition) at 200 ppm (Euschistus heros) | percent effect (mortality or growth inhibition) at 200 ppm (Diabrotica balteata) | mortality at 200 ppm (Tetranychus urticae) | mortality at 200 ppm (Thrips tabaci) | percent effect (mortality or growth inhibition) at 200 ppm (Plutella xylostella) | mortality at 200 ppm (Spodoptera littoralis [2])

Cc1cc(C2=NOC(c3cc(Cl)c(F)c(Cl)c3)(C(F)(F)F)C2)ccc1C(=O)NC1CON(S(C)(=O)=O)C1 (centres unmarked) [Compound A63]
≥ 80%: percent control (mortality, anti-feedant effect or growth inhibition) at 12.5 ppm (Spodoptera littoralis [1]) | mortality at 200 ppm (Myzus persicae) | percent effect (mortality or growth inhibition) at 200 ppm (Euschistus heros) | percent effect (mortality or growth inhibition) at 200 ppm (Diabrotica balteata) | mortality at 200 ppm (Tetranychus urticae) | mortality at 200 ppm (Thrips tabaci) | percent effect (mortality or growth inhibition) at 200 ppm (Plutella xylostella) | mortality at 200 ppm (Spodoptera littoralis [2])

CCN(C)S(=O)(=O)N1C[C@@H](NC(=O)c2ccc(C3=NO[C@@](c4cc(Cl)c(Cl)c(Cl)c4)(C(F)(F)F)C3)cc2Cl)CO1 [Compound A132, 2-chloro-N-[(4R)-2-[ethyl(methyl)sulfamoyl]isoxazolidin-4-yl]-4-[(5S)-5-(3,4,5-trichlorophenyl)-5-(trifluoromethyl)-4H-isoxazol-3-yl]benzamide]
≥ 80%: percent control (mortality, anti-feedant effect or growth inhibition) at 12.5 ppm (Spodoptera littoralis [1]) | mortality at 200 ppm (Myzus persicae) | percent effect (mortality or growth inhibition) at 200 ppm (Euschistus heros) | percent effect (mortality or growth inhibition) at 200 ppm (Diabrotica balteata) | mortality at 200 ppm (Tetranychus urticae) | mortality at 200 ppm (Thrips tabaci) | percent effect (mortality or growth inhibition) at 200 ppm (Plutella xylostella) | mortality at 200 ppm (Spodoptera littoralis [2])

CN(C)S(=O)(=O)N1C[C@@H](NC(=O)c2ccc(C3=NO[C@@](c4cc(Cl)cc(C(F)(F)F)c4)(C(F)(F)F)C3)cc2Cl)CO1 [Compound A108]
≥ 80%: percent control (mortality, anti-feedant effect or growth inhibition) at 12.5 ppm (Spodoptera littoralis [1]) | mortality at 200 ppm (Myzus persicae) | percent effect (mortality or growth inhibition) at 200 ppm (Euschistus heros) | percent effect (mortality or growth inhibition) at 200 ppm (Diabrotica balteata) | mortality at 200 ppm (Tetranychus urticae) | mortality at 200 ppm (Thrips tabaci) | percent effect (mortality or growth inhibition) at 200 ppm (Plutella xylostella) | mortality at 200 ppm (Spodoptera littoralis [2])

CCN(C)S(=O)(=O)N1C[C@@H](NC(=O)c2ccc(C3=NO[C@@](c4cc(Cl)cc(C(F)(F)F)c4)(C(F)(F)F)C3)cc2Cl)CO1 [Compound A130, 2-chloro-4-[(5S)-5-[3-chloro-5-(trifluoromethyl)phenyl]-5-(trifluoromethyl)-4H-isoxazol-3-yl]-N-[(4R)-2-[ethyl(methyl)sulfamoyl]isoxazolidin-4-yl]benzamide]
≥ 80%: percent control (mortality, anti-feedant effect or growth inhibition) at 12.5 ppm (Spodoptera littoralis [1]) | mortality at 200 ppm (Myzus persicae) | percent effect (mortality or growth inhibition) at 200 ppm (Euschistus heros) | percent effect (mortality or growth inhibition) at 200 ppm (Diabrotica balteata) | mortality at 200 ppm (Tetranychus urticae) | mortality at 200 ppm (Thrips tabaci) | percent effect (mortality or growth inhibition) at 200 ppm (Plutella xylostella) | mortality at 200 ppm (Spodoptera littoralis [2])

CCN(C)S(=O)(=O)N1C[C@@H](NC(=O)c2ccc(C3=NO[C@@](c4cc(Cl)c(F)c(Cl)c4)(C(F)(F)F)C3)cc2C)CO1 [Compound A140, 4-[(5S)-5-(3,5-dichloro-4-fluoro-phenyl)-5-(trifluoromethyl)-4H-isoxazol-3-yl]-N-[(4R)-2-[ethyl(methyl)sulfamoyl]isoxazolidin-4-yl]-2-methyl-benzamide]
≥ 80%: percent control (mortality, anti-feedant effect or growth inhibition) at 12.5 ppm (Spodoptera littoralis [1]) | mortality at 200 ppm (Myzus persicae) | percent effect (mortality or growth inhibition) at 200 ppm (Euschistus heros) | percent effect (mortality or growth inhibition) at 200 ppm (Diabrotica balteata) | mortality at 200 ppm (Tetranychus urticae) | mortality at 200 ppm (Thrips tabaci) | percent effect (mortality or growth inhibition) at 200 ppm (Plutella xylostella) | mortality at 200 ppm (Spodoptera littoralis [2])

Cc1cc(C2=NO[C@@](c3cc(Cl)cc(C(F)(F)F)c3)(C(F)(F)F)C2)ccc1C(=O)N[C@H]1CON(S(C)(=O)=O)C1 [Compound A75]
≥ 80%: percent control (mortality, anti-feedant effect or growth inhibition) at 12.5 ppm (Spodoptera littoralis [1]) | mortality at 200 ppm (Myzus persicae) | percent effect (mortality or growth inhibition) at 200 ppm (Euschistus heros) | percent effect (mortality or growth inhibition) at 200 ppm (Diabrotica balteata) | mortality at 200 ppm (Tetranychus urticae) | mortality at 200 ppm (Thrips tabaci) | percent effect (mortality or growth inhibition) at 200 ppm (Plutella xylostella) | mortality at 200 ppm (Spodoptera littoralis [2])

CNS(=O)(=O)N1C[C@@H](NC(=O)c2ccc(C3=NO[C@@](c4cc(Cl)c(Cl)c(Cl)c4)(C(F)(F)F)C3)cc2C)CO1 [Compound A67, 2-methyl-N-[(4R)-2-(methylsulfamoyl)isoxazolidin-4-yl]-4-[(5S)-5-(3,4,5-trichlorophenyl)-5-(trifluoromethyl)-4H-isoxazol-3-yl]benzamide]
≥ 80%: percent control (mortality, anti-feedant effect or growth inhibition) at 12.5 ppm (Spodoptera littoralis [1]) | mortality at 200 ppm (Myzus persicae) | percent effect (mortality or growth inhibition) at 200 ppm (Euschistus heros) | percent effect (mortality or growth inhibition) at 200 ppm (Diabrotica balteata) | mortality at 200 ppm (Tetranychus urticae) | mortality at 200 ppm (Thrips tabaci) | percent effect (mortality or growth inhibition) at 200 ppm (Plutella xylostella) | mortality at 200 ppm (Spodoptera littoralis [2])

C=CCNS(=O)(=O)N1CC(NC(=O)c2ccc(C3=NO[C@@](c4cc(Cl)c(F)c(Cl)c4)(C(F)(F)F)C3)cc2C)CO1 (some centres unmarked) [Compound A105]
≥ 80%: percent control (mortality, anti-feedant effect or growth inhibition) at 12.5 ppm (Spodoptera littoralis [1]) | mortality at 200 ppm (Myzus persicae) | percent effect (mortality or growth inhibition) at 200 ppm (Euschistus heros) | percent effect (mortality or growth inhibition) at 200 ppm (Diabrotica balteata) | mortality at 200 ppm (Tetranychus urticae) | mortality at 200 ppm (Thrips tabaci) | percent effect (mortality or growth inhibition) at 200 ppm (Plutella xylostella) | mortality at 200 ppm (Spodoptera littoralis [2])

Cc1cc(C2=NOC(c3cc(Cl)cc(Cl)c3)(C(F)(F)F)C2)ccc1C(=O)NC1CON(S(C)(=O)=O)C1 (centres unmarked) [Compound A33, 4-[5-(3,5-dichlorophenyl)-5-(trifluoromethyl)-4H-isoxazol-3-yl]-2-methyl-N-(2-methylsulfonylisoxazolidin-4-yl)benzamide]
≥ 80%: percent control (mortality, anti-feedant effect or growth inhibition) at 12.5 ppm (Spodoptera littoralis [1]) | mortality at 200 ppm (Myzus persicae) | percent effect (mortality or growth inhibition) at 200 ppm (Euschistus heros) | percent effect (mortality or growth inhibition) at 200 ppm (Diabrotica balteata) | mortality at 200 ppm (Tetranychus urticae) | mortality at 200 ppm (Thrips tabaci) | percent effect (mortality or growth inhibition) at 200 ppm (Plutella xylostella) | mortality at 200 ppm (Spodoptera littoralis [2])

Cc1cc(C2=NO[C@@](c3cc(Cl)c(Cl)c(Cl)c3)(C(F)(F)F)C2)ccc1C(=O)N[C@@H]1CON(S(=O)(=O)N(C)C)C1 (single isomer, unassigned) [Compound A112]
≥ 80%: percent control (mortality, anti-feedant effect or growth inhibition) at 12.5 ppm (Spodoptera littoralis [1]) | mortality at 200 ppm (Myzus persicae) | percent effect (mortality or growth inhibition) at 200 ppm (Euschistus heros) | percent effect (mortality or growth inhibition) at 200 ppm (Diabrotica balteata) | mortality at 200 ppm (Tetranychus urticae) | mortality at 200 ppm (Thrips tabaci) | percent effect (mortality or growth inhibition) at 200 ppm (Plutella xylostella) | mortality at 200 ppm (Spodoptera littoralis [2])

Cc1cc(C2=NO[C@@](c3cc(Cl)c(F)c(Cl)c3)(C(F)(F)F)C2)ccc1C(=O)N[C@@H]1CON(S(=O)(=O)N(C)C)C1 (single isomer, unassigned) [Compound A34]
≥ 80%: percent control (mortality, anti-feedant effect or growth inhibition) at 12.5 ppm (Spodoptera littoralis [1]) | mortality at 200 ppm (Myzus persicae) | percent effect (mortality or growth inhibition) at 200 ppm (Euschistus heros) | percent effect (mortality or growth inhibition) at 200 ppm (Diabrotica balteata) | mortality at 200 ppm (Tetranychus urticae) | mortality at 200 ppm (Thrips tabaci) | percent effect (mortality or growth inhibition) at 200 ppm (Plutella xylostella) | mortality at 200 ppm (Spodoptera littoralis [2])
